Reference: paper PMC3871529, “At a Supra-Physiological Concentration, Human Sexual Hormones Act as Quorum-Sensing Inhibitors” (PLoS ONE, 2013)
Like-named read-outs stand apart in the source and are kept apart here.

Key:
[1] = tested on: QS-regulated Ti-plasmid transfer in A. tumefaciens; assay: QS-regulated Ti-plasmid transfer (conjugation) assay; format: cell-based, Agrobacterium tumefaciens; conditions: QSI at 0.1 mg/ml, OC8-HSL 500 pM, 72 h at 24°C
Description: Figure 4 In vitro Ti plasmid transfer frequency in Agrobacterium. The Ti plasmid transfer frequencies were measured in the presence of QSI (A) and the four 1248-diastereoisomeres (B) at 0.1 mg/ml. Histograms represent the cell density of transconjugants (CFU/ml), while black diamonds and squares, those of the donor and recipient strains, respectively. Measurements were performed in quadruplicate and the experiment was repeated twice. The cell densities of transconjugants in the presence of QSI were compared to that of the control in the presence of DMSO with a Mann and Whitney test (α = 0.05). Statistically different values are noted by asterisks.
In A. tumefaciens, the transfer of the Ti-plasmid from a donor cell to a recipient one is controlled by QS. QSI were evaluated for their capacity to reduce plasmid transfer frequency in Agrobacterium. In the plasmid transfer assay, two modified Agrobacterium strains were used: a Ti-plasmid donor, which requires exogenous AHL to transfer a kanamycin-resistant (Km^r) Ti-plasmid, and a rifampicin-resistant (Rif^r) recipient strain, which is free of Ti-plasmid. Overnight cultures of the donor and recipient strains were mixed with 500 pM of oxo-octanoylhomoserine lactone (OC8-HSL) and 0.1 mg/ml of QSI in LBm medium. Each combination was repeated 4 times in microwell plates.

[2] = tested on: Agrobacterium biosensor cells; assay: Minimal inhibitory concentration (MIC); format: cell-based, Agrobacterium tumefaciens; conditions: 10^5 CFU/ml, 36 h at 30°C
Description: Aside from the effect of QSI on QS regulation, the toxicity of these compounds was tested on bacterial cells by measuring two parameters: the minimal inhibitory concentration (MIC) and minimal bactericidal concentration (MBC). MIC, which is the lowest concentration of QSI (µg/ml) inhibiting any visible culture after 36 h of incubation at 30°C, was estimated by culturing 10^5 CFU/ml of the Agrobacterium biosensor cells in the presence of different concentrations of the QSI. MBC, which is the lowest concentration of QSI (µg/ml) that results in a 99.9% reduction of the initial bacterial population (10^5 CFU/ml) after 36 h of incubation at 30°C in the presence of different concentrations of QSI, was estimated by plating 100 µL of the Agrobacterium cultures on agar LBm plates. After an incubation of 48 h at 30°C, CFU were counted and the MBC values were calculated.

LasR = target: T1, LasR (Pseudomonas aeruginosa, UniProt P25084); assay: E. coli bioindicator expressing LasR (pAL105, lasI::luxCDABE luminescence); format: cell-based; conditions: OC12-HSL 100 µM; QSIs at 0.1 mg/ml, naringenin and naringin at 0.5 mg/ml
T1 construct: expressed in transfected cells; host or cells: Escherichia coli JLD271 carrying pAL105 (pSB401-derivative, lasR+ lasI::luxCDABE)
Description: We determined whether the AHL-binding transcriptional factors LasR and RhlR were impaired in their capacity to activate expression of the QS-regulated genes in the presence of various QSIs. This was achieved by using two E. coli bioindicator strains expressing either LasR or RhlR proteins and harboring an appropriate reporter lux operon for measuring their transcriptional activity in the presence of OC12-HSL at 100 µM and C4-HSL at 10 µM, respectively. Adding C4-HSL to the pAL101-bioindicator or OC12-HSL to the pAL105-bioindicator induced the expression of the reporter lux operon and the consequent production of luminescence. In contrast, only background levels of luminescence were detected in control strains harboring the plasmids pAL102 or pAL106, which lacks the rhlR or lasR gene, respectively.
Figure 7 QSIs modulated activity of the AHL-sensors in P. aeruginosa. Luminescence of the reporting operon lux, expressed in relative light units (RLU/OD600), was measured in E. coli bioindicator strains harboring the LasR (A) and RhlR (B) AHL-sensing systems of P. aeruginosa in the presence of […]. The QSIs estradiol, estrone, estriol and hordenine were added at 0.1 mg/ml, while naringenin and naringin, added at 0.5 mg/ml, were used as QSI-reference and non-QSI reference, respectively. Each test (n = 6) was compared with the DMSO-condition using Student's t test. Asterisks indicate statistically different data (p value of ≤0.01).
Escherichia coli JLD271 biosensor strains harboring LasR- and RhlR-based plasmids pAL105 and pAL101 and control plasmids pAL106 (LasR^-) and pAL102 (RhlR^−) (Table 1) were prepared according to Vandeputte et al.. Briefly, these strains were grown in LB medium supplemented with tetracycline (10 µg/ml) and chloramphenicol (25 µg/ml) for 24 h. Then 50-µl portions of the cultures were subcultured in 1 ml of LB medium (the starting OD600 ranged between 0.02 and 0.025 corresponding to 5.10^6 CFU) supplemented with 10 µl of DMSO (1% [vol/vol] final), 10 µl of naringenin or naringin dissolved in DMSO (2 mM, final concentration), or 10 µl of the molecule to be tested. To induce the expression of the lux operon, 0, 1, 10 or […] of C4-HSL was added to pAL101 and pAL102, while OC12-HSL was added to pAL105 and pAL106. After incubation for 2 h at 37°C with agitation (175 rpm), 200 µl of culture was transferred to 96-well OptiPlate-96 F plates from Perkin-Elmer, and the luminescence of each sample was measured by using a TopCount NXT device from Perkin-Elmer. The LasR(pAL106) and RhlR(pAL102) biosensors were used for background subtraction, and the OD600 values were measured to account for the differences in cell density. All experiments were performed in six replicates. The statistical significance of each test was evaluated by conducting Student's t tests using the GraphPad Prism software, and p values ≤0.05 were considered significant. Naringenin (4′,5,7-trihydroxyflavanone), naringin (4′,5,7-trihydroxyflavanone 7-rhamnoglucoside), the AHLs OC12-HSL and C4-HSL were purchased from Sigma-Aldrich and dissolved freshly in 100% DMSO before use. Tested QSIs were dissolved in 100% DMSO before use.

T1 sequence (P25084 whole entry): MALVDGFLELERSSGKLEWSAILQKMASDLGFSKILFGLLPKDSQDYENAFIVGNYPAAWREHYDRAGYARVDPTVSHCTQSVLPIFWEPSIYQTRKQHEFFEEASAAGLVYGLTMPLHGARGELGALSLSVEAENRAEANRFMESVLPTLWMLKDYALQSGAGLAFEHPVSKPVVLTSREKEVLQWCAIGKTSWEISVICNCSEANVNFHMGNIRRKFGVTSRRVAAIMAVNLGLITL

Row | Compound | effect on Ti plasmid transfer frequency (words) [1] | effect on Ti plasmid transfer frequency (words) ([1]; listed as hordenine) | MIC ([2]; Agrobacterium, read-out: MIC) [µg/mL] | effect on LasR functionality (lux luminescence) (LasR) | effect on Ti plasmid transfer frequency (words) ([1]; listed as estrone) | MIC [2] [µg/mL]
1 | CN(C)CCc1ccc(O)cc1 [Compound 3499, hordenine] | significantly reduce the plasmid transfer frequency by one order of magnitude | decreased the frequency | > 100 | significant impact |  | 
2 | 3-Hydroxy-13-methyl-6,7,8,9,11,12,13,14,15,17-decahydro-cyclopenta[a] phenanthren-16-one [Compound 729, reference compound] | significantly reduce the plasmid transfer frequency by one order of magnitude |  |  | significant impact | decreased the frequency | >100
3 | C[C@]12CC[C@@H]3c4ccc(O)cc4CC[C@H]3[C@@H]1C[C@@H](O)[C@@H]2O [Estriol, estriol] | significantly reduce the plasmid transfer frequency by one order of magnitude |  | > 100 | significant impact |  | 
